# In patent US20040132108A1, “Screening methods and agents” (priority 2001, published 2004):
# Entries after “also recorded” stand apart in the source; their conditions may differ.
# Key:
# full-length p300 protein = target: T1, full-length p300 protein (Homo sapiens, UniProt Q09472); test: ELISA binding of full-length p300 to biotinylated peptides; settings: biotinylated peptide titrated onto streptavidin-coated wells
# T1 construct: Full-length p300 and p300(1135-2414) baculovirus were a gift from N. B. La Thangue; made in house; host or cells: Sf9 insect cells (baculovirus)
# Description: Microtitre wells were coated with 100 ng of streptavidin and incubated overnight at room temperature. To prevent non-specific binding, 100 μl of 3% BSA, PBS, 01% Tween 20 was added and incubated for 1 hour at 4° C. Wells were washed 3 times with 180 μl PBSM 0.1% Tween 20 and biotinylated peptides, resuspended in 50 μl/well of 3% BSA, PBS, 0.1% Tween 20/NaF/Beta-phosphoglycerate, were incubated for 1 hour at 4° C. Non-specific binding sites were blocked by adding 180 μl 5% milk powder, PBS, 0.1 Tween 20/NaF/Beta-phosphoglycerate for 30 minutes at 4° C. before adding p300 resuspended in 50 ml/well of Sf9LB. Where plant extract was added to p300, the reaction was incubated for 30 minutes before adding to wells. The reaction was the incubated for 1 hour at 4° C. and then the wells were rigorously washed 3 times with 180 μl PBS, 0.1%, Tween 20 before incubating for 1 hour with specific antibodies in 50 μl/well 5% milk powder, PBS, 0.1% Tween 20/NaF/Beta-phosphoglycerate. Wells were given another 3 washes with PBS, 0.1%, Tween 20 to remove unbound antibody and specific binding was detected with secondary antibody (anti-mouse or anti-rabbit) conjugated to horse radish peroxidase (HRP). The binding was detected by ECL and quantified using a luminometer (Fluoroskan Ascent FL).
# Plates were rigorously washed 3 times with PBST20 (0.1% v/v) to reduce the non-specific binding. Primary antibodies anti-p300(N-15) (Santa Cruz Biotechnology Inc.), anti-FLAG (Sigma) and anti-Mdm2 (2A10) (Movarian Biotechnologies) were used and the appropriate secondary antibody cross-linked to HRP. The signal detected by Enhanced Chemoluminescence was developed using Fluoroskan Ascent FL.
# [1] = test system: p53-dependent transactivation of the p21 promoter; test: p21-Luciferase reporter of endogenous p53-dependent transcription in A375 cells; assay type: cell-based; settings: for basal p53-dependent transactivation of the p21 promoter: cycling A375 cells, transient transfection, p21-Luc / β-Gal
# Description: Proliferating A375 cells were transiently co-transfected with EGFP-NS, EGFP-BOX-I, EGFP-S15D, EGFP-T18D or EGFP-S20D and control or p21-Luciferase reporter constructs. Changes in the basal p53-dependent transcription activity was quantitated 24 hours post-transfection.
# A375 and HCT116 cells both containing a wild-type p53 pathway were maintained in DMEM (Gibco BRL) supplemented with 10% FBS and incubated at 37° C. with an atmosphere of 10% CO2. For transient transfections, 3×10^5 cells were plated out in 6-well dishes and transfected with LipofectAMINE (Gibco BRL). The exact quantity of DNA transfected is indicated in each experiment and where necessary, carrier DNA was incorporated to keep the same quantity of DNA consistent in each transfecton. To monitor transfection efficiency, pCMV-βGal was included in each transfection. Unless otherwise stated, cells were harvested 24 hours post-transfection and lysed in Reporter Lysis Buffer and the corresponding luciferase and β-Gal assay carried out according to the manufacturers protocol (Promega, UK).
# [2] = test system: p300 induction of p53-dependent gene expression from the p21 promoter; test: p53/p300 co-transfected Saos-2 cells, p21-Luc reporter; assay type: cell-based; settings: for p53-p300 co-stimulated transactivation, p21 promoter: Saos-2 cells co-transfected with p53 and p300, increasing EGFP construct; for p53 protein levels (immunoblot): Saos-2 cells, 1 μg EGFP construct, relative to EGFP-NS control
# Description: FIG. 3: In vivo inhibition of ectopically expressed p53 from the p21 promoter by phospho-peptide mimetic fusion proteins. (A) Stimulation of p53 activity by cotransfection with p300. Saos-2 cells were transiently co-transfected with 1 μg of pCMV-p53, 2 μg p21-Luc, 1 μg pCMVβ-Gal and increasing amounts of pCMV-βp300. The cells were harvested 30 hours post-transfection and the relative activity is expressed as a ratio of luciferase activity to β-Gal activity (Δ negative control, 0 ng, 1 μg, 2 μg and 5 μg). (B) EGFP-S20D peptide ([…] LPENN) inhibits p300 induction of p53-dependent gene expression. Saos-2 cells were transiently co-transfected with 1 μg pCMV-p53, 2 μg p21-Luc, 5 μg pCMVβp300, 1 μg of pCMVβ-Gal and increasing amounts of EGFP-constructs as indicated. The cells were processed as described in the legend of FIG. 3A (▴ control, control, 1 μg, 2 μg and 5 μg). (C) Immunoblots of p53 and EGFP-fusion proteins in transfected Saos-2 cells. Lysates from transfected Saos-2 cells [as described in FIG. 3B] were normalized for protein content by Bradford and loading for immunoblots was confirmed by Red Ponceau staining. The constructs transfected are highlighted by the legend above the Figure (increasing amounts of EGFP fused to NS, BOX-I, S15D, T18D, and S20D BOX-I domain peptides) and are described below the Figure as a “+”. The levels of p53, EGFP, and p21 proteins are in the top, middle, or bottom panel, respectively. p53-dependent activity (in RLU's) from FIG. 3B is listed underneath the immunoblots for direct comparison of p53 activity to p53 protein and EGFP protein levels.
# (§1) A final model used to examine whether the phospho-peptide mimetic peptides inhibit p53 activity involved the use of the p53-null cell line Saos-2 co-transfected with p300, p53, and the indicated reporter or expression vectors (FIG. 3). Transient co-transfection of increasing amounts of p300 with p53 into Saos-2 cells lead to maximal stimulation of p53-dependent gene expression from the p21 promoter (FIG. 3A) or the bax promoter (FIG. 5A).
# A375 and Saos-2 cells were maintained in DMEM (Gibco BRL) supplemented with 10% FBS and incubated at 37° C. with an atmosphere of 10% CO2. Transient transfections and ELISAs were carried out as previously described (Dornan and Hupp 2001). Full-length p300 and His-p300 infected Sf9 cells were harvested 72 hours post-infection as described previously (Shikama, Lee et al. 1999; Dornan and Hupp 2001). Sf9 expressed wtp53 and p53ΔProAE tetramers were purified by heparin-sepharose chromatography as described previously (Hupp and Lane 1994). Transfected lysates were run on a 12% SDS-PAGE and transferred to nitrocellulose membrane and even protein loading confirmed by Ponceau S (Sigma) staining. Primary antibodies anti-p53 (DO-1), anti-p21 (Ab-1) (Calbiochem), anti-Bax (N-20) (Santa Cruz Biotechnology Inc.), anti-EGFP (Clontech) were used and the appropriate secondary antibody conjugated to HRP. The signal detected by Enhanced Chemo-luminescence was developed using autoradiography film (Amersham).
# HCT116 (p53^+/+) cells = test: Cell cycle profile by FACS in HCT116 p53+/+ cells; assay type: cell-based; settings: 5 μg EGFP construct, CD20-selected cells, propidium iodide
# Text: To address this issue, we co-transfected EGFP-NS, EGFP-BOXI, EGFP-S20D or EGFP-PRO with pCMV-CD20 cell surface marker into HCT116 (p53^+/+) cells, selected the transfected population using a FITC-conjugated CD20 antibody, sorted them by FACS and the resultant cell cycle profile of the transfected population determined by propidium iodide staining of DNA. The amount of EGFP-peptide construct and levels of EGFP protein produced were identical to those used in transcription assays (FIG. 10 and data not shown), so a direct correlation can be made between the reduction in transcription by the EGFP-S20D or EGFP-PRO peptides and changes in cell-cycle parameters. […] The MDM2-binding peptides have been well-documented to have a positive affect on […] dependent transcription (Bottger, Bottger et al. 1996).
# (§2) To select the transfected cell population, cells were co-transfected with 3 μg pCMV-CD20 and incubated for 24 hours before washing and detaching cells in PBS/5 mM EDTA. Cells were then harvested and resuspended in serum free media with FITC-conjugated anti-CD20 (Becton Dickinson) and incubating for 30 minutes on ice. Cells were then washed twice with PBS/1% FBS and resuspended in 100 μl PBS before adding 900 μl ice-cold ethanol dropwise. After incubation at 4° C. for >2 hours cells were stained with Pi (40 μg/ml) and treated with RNAse (100 μg/ml). Transfected cells were gated using the FL1 channel and PI staining detected with the FL2 channel and the resultant cell cycle profiles of 2000 cells were analysed using a FACScan and CellQuest software (Becton Dickinson).
# [3] = test system: p300 induction of p53-dependent gene expression from the bax promoter; test: p53/p300 co-transfected Saos-2 cells, bax-Luc reporter; assay type: cell-based; settings: Saos-2 cells co-transfected with p53 and p300, increasing EGFP construct
# Description: FIG. 5: In vivo inhibition of ectopically expressed p53 activity from the bax promoter by phospho-peptide mimetic fusion proteins. (A) Stimulation of p53 activity by cotransfection with p300. Saos-2 cells were transiently co-transfected with 1 μg of pCMV-p53, 2 μg bax-Luc, 1 μg pCMVβ-Gal and increasing amounts of pCMV-βp300. The cells were harvested 30 hours post-transfection and the relative activity is expressed as a ratio of luciferase activity to β-Gal activity. (B) EGFP-S20D peptide fusion protein inhibits p300 induction of p53-dependent gene expression. Saos-2 cells were transiently co-transfected with 1 μg pCMV-p53, 2 μg bax-Luc, 5 μg pCMVβp300, 1 μg of pCMVβ-Gal and increasing amounts of EGFP-S20D or EGFP-control. Cells were harvested 30 hours post-transfection and relative activity is expressed as a ratio of luciferase activity to β-Gal activity ( ? control, 0 μg, 1 μg, 2 μg and 5 μg).
# as §1
# A375 and Saos-2 cells were maintained in DMEM (Gibco BRL) supplemented with 10% FBS and incubated at 37° C. with an atmosphere of 10% CO2. Transient transfections and ELISAs were carried out as previously described (Dornan and Hupp 2001). Full-length p300 and His-p300 infected Sf9 cells were harvested 72 hours post-infection as described previously (Shikama, Lee et al. 1999; Dornan and Hupp 2001). Sf9 expressed wtp53 and p53ΔProAE tetramers were purified by heparin-sepharose chromatography as described previously (Hupp and Lane 1994). […] The signal detected by Enhanced Chemo-luminescence was developed using autoradiography film (Amersham).
# HCT116 p53^−/− cells = test: Cell cycle profile by FACS in HCT116 p53-/- cells; assay type: cell-based; settings: 5 μg EGFP construct, CD20-selected cells, propidium iodide
# Description: With the arrest in G2/M observed in p53^+/+ cells using the PRO and S20D fusion peptides, it was determined whether the peptides would have any effect on the cell cycle profile in a p53^−/− cell line. Using the same parameters as in the p53^+/+ cell line, the effects on the cell cycle were determined (FIGS. 12B and 12D).
# as §2
# T1 sequence (Q09472 whole entry): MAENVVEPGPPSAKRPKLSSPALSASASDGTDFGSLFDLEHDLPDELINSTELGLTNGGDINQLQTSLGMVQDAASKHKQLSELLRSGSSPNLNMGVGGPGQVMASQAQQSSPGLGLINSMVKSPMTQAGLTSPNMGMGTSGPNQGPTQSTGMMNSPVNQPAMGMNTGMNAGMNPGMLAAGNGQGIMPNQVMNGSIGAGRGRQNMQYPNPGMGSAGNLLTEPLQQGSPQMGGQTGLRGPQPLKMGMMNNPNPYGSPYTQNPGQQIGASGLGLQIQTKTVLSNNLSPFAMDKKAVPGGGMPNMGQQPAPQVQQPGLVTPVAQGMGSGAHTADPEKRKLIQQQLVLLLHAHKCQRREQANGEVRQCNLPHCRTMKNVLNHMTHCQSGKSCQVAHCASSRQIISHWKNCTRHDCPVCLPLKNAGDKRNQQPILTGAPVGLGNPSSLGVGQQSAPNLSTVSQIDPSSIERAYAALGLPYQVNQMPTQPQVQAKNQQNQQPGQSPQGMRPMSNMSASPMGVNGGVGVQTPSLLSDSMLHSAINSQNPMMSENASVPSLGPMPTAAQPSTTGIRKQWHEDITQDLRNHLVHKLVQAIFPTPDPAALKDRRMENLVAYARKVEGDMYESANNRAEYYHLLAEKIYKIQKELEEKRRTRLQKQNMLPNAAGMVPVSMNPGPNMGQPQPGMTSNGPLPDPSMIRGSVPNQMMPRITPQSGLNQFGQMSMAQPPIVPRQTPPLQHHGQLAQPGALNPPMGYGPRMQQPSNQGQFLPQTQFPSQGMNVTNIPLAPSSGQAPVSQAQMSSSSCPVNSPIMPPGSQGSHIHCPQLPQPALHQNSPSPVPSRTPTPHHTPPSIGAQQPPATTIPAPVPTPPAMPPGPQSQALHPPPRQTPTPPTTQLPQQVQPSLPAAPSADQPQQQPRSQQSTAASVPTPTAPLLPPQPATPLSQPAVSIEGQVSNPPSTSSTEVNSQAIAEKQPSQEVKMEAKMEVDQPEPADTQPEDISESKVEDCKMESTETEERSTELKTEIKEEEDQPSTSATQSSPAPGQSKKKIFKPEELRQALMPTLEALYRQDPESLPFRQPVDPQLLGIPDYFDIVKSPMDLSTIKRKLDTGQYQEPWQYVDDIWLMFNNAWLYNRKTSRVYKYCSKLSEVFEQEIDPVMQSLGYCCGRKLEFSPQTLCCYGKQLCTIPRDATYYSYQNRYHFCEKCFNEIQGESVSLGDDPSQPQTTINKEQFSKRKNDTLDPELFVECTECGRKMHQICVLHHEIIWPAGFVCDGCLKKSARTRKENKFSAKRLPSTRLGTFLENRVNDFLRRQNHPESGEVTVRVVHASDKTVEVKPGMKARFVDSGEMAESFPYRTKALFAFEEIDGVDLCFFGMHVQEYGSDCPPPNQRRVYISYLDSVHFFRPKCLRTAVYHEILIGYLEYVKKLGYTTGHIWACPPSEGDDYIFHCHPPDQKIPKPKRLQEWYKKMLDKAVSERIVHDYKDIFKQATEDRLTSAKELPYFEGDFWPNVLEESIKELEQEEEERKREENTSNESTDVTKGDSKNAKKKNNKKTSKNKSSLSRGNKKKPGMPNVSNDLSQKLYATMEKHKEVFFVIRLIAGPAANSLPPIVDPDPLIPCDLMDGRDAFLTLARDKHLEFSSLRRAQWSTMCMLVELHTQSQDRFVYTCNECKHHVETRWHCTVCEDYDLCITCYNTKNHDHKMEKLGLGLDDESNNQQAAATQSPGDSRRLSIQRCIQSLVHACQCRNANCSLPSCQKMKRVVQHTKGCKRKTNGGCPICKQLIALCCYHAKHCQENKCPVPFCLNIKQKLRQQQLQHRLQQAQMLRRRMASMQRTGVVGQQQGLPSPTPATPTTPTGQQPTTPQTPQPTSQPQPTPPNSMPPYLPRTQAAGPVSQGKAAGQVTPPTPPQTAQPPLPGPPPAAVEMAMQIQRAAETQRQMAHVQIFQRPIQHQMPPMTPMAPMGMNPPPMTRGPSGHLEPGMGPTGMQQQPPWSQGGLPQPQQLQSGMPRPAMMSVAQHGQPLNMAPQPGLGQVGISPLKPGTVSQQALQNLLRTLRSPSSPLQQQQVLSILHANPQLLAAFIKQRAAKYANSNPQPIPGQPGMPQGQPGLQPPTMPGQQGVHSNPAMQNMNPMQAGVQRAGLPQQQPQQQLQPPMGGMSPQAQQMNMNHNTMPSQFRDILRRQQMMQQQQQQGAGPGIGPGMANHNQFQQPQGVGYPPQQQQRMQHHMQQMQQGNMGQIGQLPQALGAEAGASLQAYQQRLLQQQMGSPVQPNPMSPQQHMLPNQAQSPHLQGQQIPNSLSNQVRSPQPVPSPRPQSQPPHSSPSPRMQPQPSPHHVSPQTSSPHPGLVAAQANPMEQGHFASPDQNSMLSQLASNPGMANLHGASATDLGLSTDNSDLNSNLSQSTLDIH
Substance,binding of full-length p300 protein to the peptide (RLU) (full-length p300 protein),basal p53-dependent transactivation of the p21 promoter [1],"p53-p300 co-stimulated transactivation, p21 promoter [2]",cell cycle effect (G2/M arrest) (HCT116 (p53^+/+) cells),"p53-p300 co-stimulated transactivation, bax promoter [3]",also measured
"C-terminal end of the SMAD4 polyproline domain: peptide from the Smad-4 proline-rich region (aa 275-303), C-terminal end (PYTPNLPHHQNGHLQHHPPMPPHPGHYWP; UniProt Q13485 275-303, looked up, fragment)",relatively high affinity,,,,,
"UBF1 (231-246): consensus peptide from UBF1, amino acids 231-246 (GKQWSQLSDKKRLKWI; UniProt P17480 231-246, looked up, fragment)",did not bind p300,,,,,
"UBF1 (321-336): consensus peptide from UBF1, amino acids 321-336 (STERMVLCSQQWKLLS; UniProt P17480 321-336, looked up, fragment)",affinity slightly less than the p53 BOX-I-Ser^20 phospho-peptide,,,,,
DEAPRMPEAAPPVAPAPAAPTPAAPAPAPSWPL [EGFP-PRO],,inhibit endogenous p53-dependent transcription compared to the EGFP-NS peptide and with the same potency as the EGFP-S20D peptide,striking inhibition of p53-p300 co-stimulation,more striking arrest in G2/M phase,striking inhibition of p53-p300 co-stimulation,cell cycle effect (G2/M arrest) (HCT116 p53^−/− cells): similarly induced a G2/M arrest
"p53 polyproline peptide (83-102): p53 polyproline peptide containing amino acids 83-102 (AAPAPAPSWPLSSSVPSQKT; UniProt P04637 83-102, looked up, fragment)",high affinity,,,,,
"p53PRO (69-88): p53 polyproline peptide amino acids 69-88 (AAPPVAPAPAAPTPAAPAPA; UniProt P04637 69-88, looked up, fragment)",did not restore binding activity,,,,,
EPPLSQETFSDLWKLLPENN [EGFP-BOX-I],,expected increase in p53-dependent transactivation,stimulated p53 activity,relatively insignificant role in altering cell-cycle parameters,stimulated p53 activity,"p53-dependent gene expression in irradiated cells ([1]; A375 cells, ionizing radiation (5 Gy) or UV-C (20 J/m^2), p21-Luc): stimulated p53 activity in the irradiated cell; p53 protein levels (immunoblot) [2]: increased"
EPPLSQETFDDLWKL LPENN [EGFP-S20D],,inhibiting p53 activity to the highest degree,inhibited synergism between p53 and p300; also recorded: inhibits transactivation,induced a prominent G2/M arrest,inhibited synergism between p53 and p300; also recorded: inhibits transactivation,p53 protein levels (immunoblot) [2]: increased; cell cycle effect (G2/M arrest) (HCT116 p53^−/− cells): failed to elicit a defined G2/M arrest
